From patent publication US5317039A, “Cyclopropyl-alanine aryl/alkylsulfide/sulfonyl-terminated amino-diol compounds for treatment of hypertension” (G. D. Searle & Co., priority 1992, dated 1994)
Square brackets hold non-standard residues; d marks the D form. Peptide text beside a SMILES is read from it. * marks the point of attachment. Sta = CC(C)C[C@H](N)[C@@H](O)CC(=O)O; Isovaleryl = CC(C)CC(=O)*

Key:
[1] = target: T1, human renin (Homo sapiens, UniProt P00797); assay: Human Renin Inhibition in vitro; format: biochemical; settings: pH 7.4, 2 h at 37° C., human plasma, angiotensin I by radioimmunoassay
T1 construct: purchased National Institute for Biological Standards, London
T1 sequence (P00797 67-406): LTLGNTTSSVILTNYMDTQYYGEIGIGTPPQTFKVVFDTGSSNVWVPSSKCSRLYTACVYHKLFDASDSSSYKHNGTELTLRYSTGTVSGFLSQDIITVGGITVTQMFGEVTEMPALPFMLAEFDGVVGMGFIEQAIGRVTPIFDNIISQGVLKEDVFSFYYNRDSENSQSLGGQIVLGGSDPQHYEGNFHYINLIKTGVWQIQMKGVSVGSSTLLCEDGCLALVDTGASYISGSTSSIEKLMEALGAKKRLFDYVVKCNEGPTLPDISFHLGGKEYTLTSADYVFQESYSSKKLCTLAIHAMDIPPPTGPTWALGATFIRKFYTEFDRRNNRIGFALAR
Protocol: Compounds of Formula I were evaluated as inhibitors of human renin in an in vitro assay, as follows: This human renin inhibition test has been previously described in detail [Papaioannou et al., Clinical and Experimental Hypertension, A7(9), 1243-1257 (1985)]. Human renin was obtained from the National Institute for Biological Standards, London. An incubation mixture was prepared containing the following components: in a total volume of 0.25 mL: 100 mM Tris-acetate buffer at pH 7.4, 25×10^-6 Goldblatt units of renin, 0.05 mL of plasma from human volunteers taking oral contraceptives, 6.0 mM Na-EDTA, 2.4 mM phenylmethyl sulfonyl fluoride, 1.5 mM 8-hydroxyquinoline, 0.4 mg/mL bovine serum albumin (BSA), and 0.024 mg/mL neomycin sulfate. This mixture was incubated for two hours at 37° C. in the presence or absence of renin inhibitors. The produced angiotensin I was determined by radioimmunoassay (New England Nuclear kit). Test compounds to be assayed were dissolved in DMSO and diluted with 100 mM Tris-acetate buffer at pH 7.4 containing 0.5% BSA to the appropriate concentration. The final concentration of organic solvent in the reaction mixture was less than 1%. Control incubations at 37° C. were used to correct for effects of organic solvent on renin activity.

[2] = test system: hog renin; settings: nephrectomized rats, after injection of hog renin; cited from earlier work
[3] = test system: pepsin; settings: cited from earlier work
[4] = test system: renin; settings: cited from earlier work
[5] = test system: cathepsin D; settings: cited from earlier work

IC50 [1] | SMILES | reduce blood pressure in vivo [2] | inhibitor of pepsin [3] | inhibitor of renin [4] | inhibitor of cathepsin D [5]
0.3 nM | CC(C)C[C@H](O)[C@H](O)[C@H](CC1CCCCC1)NC(=O)[C@H](CC1CC1)NC(=O)C(Cc1ccccc1)CS(=O)(=O)C(C)(C)C (stereo partly drawn) [Example 1] | – | – | – | –
2.7 nM | CC(C)C[C@H](O)[C@H](O)[C@H](CC1CCCCC1)NC(=O)[C@H](CC1CC1)NC(=O)C(CSC(C)(C)C)Cc1ccccc1 (stereo partly drawn) [Example 2] | – | – | – | –
– | CC(C)CC(=O)N[C@H](C(=O)N[C@H](C(=O)N[C@@H](CC(C)C)[C@@H](O)CC(=O)N[C@@H](C)C(=O)N[C@@H](CC(C)C)[C@@H](O)CC(=O)O)C(C)C)C(C)C [pepstatin] (Isovaleryl-VV[Sta]A[Sta]-OH) | reduce blood pressure in vivo | inhibitor | inhibitor | inhibitor
